According to article PMC7022378, “Structural Analyses on the Deamidation of N-Terminal Asn in the Human N-Degron Pathway” (Biomolecules, 2020):
Positions count from the first letter of the chain named.

Columns and labels:
NTAN1 C75A = biological target: T1, NTAN1 C75A (Homo sapiens, UniProt Q96AB6, C75A); assay: In vitro deamidation assay, NTAN1 C75A mutant; format: biochemical; conditions: substrate NRAAA, 100 μM, 37 °C, pH 7.0, LC-MS; vs wild-type (Figure 1e); three independent experiments
T1 construct: The gene for full-length NTAN1 was cloned into pET-21a(+); made in house; host or cells: E. coli Rosetta 2(DE3)
T1 sequence (Q96AB6 1-310 C75A): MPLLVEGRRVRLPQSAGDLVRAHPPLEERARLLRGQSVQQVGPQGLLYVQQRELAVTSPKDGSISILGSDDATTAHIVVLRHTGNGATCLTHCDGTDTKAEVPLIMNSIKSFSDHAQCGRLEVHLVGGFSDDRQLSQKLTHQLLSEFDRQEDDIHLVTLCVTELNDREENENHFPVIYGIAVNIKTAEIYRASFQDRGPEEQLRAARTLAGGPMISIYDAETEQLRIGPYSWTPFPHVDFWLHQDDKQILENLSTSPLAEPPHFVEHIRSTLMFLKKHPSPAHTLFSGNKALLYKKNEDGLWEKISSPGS
Excerpt: (§1) NTAN1 mutants were constructed using QuikChange Ⅱ Site-Directed Mutagenesis Kit (Agilent Technologies, Santa Clara, CA, USA). NTAN1 mutants, Q51A, S69A, T73A, T74A, C75A, H92A, S254A, T255A, and E260A were generated. The mutants were expressed and purified as for NTAN1.
(§2) Peptides with Nt-Asn which mimic potential substrates of NTAN1 were synthesized: NRA, NRAA, NRAAA, NRQVA, NRQVAA, NRQVAAA, NFAAR, NLAAR, NRAAR, NAAAR, NNAAR, NPAAR, NGAAR, and NDAAR. Non-Nt-Asn peptides, QRAAA and VRAAA, were also synthesized. NTAN1 (at concentrations of 0.5 μM, 0.16 μM, or 0.04 μM) and the peptides (at a concentration of 100 μM) were mixed and incubated at 37 °C in a buffer containing 200 mM NaCl and 10 mM HEPES-NaOH (pH 7.0). […] The deamidation coefficient of peptides catalyzed by NTAN1 was assessed by the slope of exponential curve drawn from the concentration of the substrate over incubation time.
(§3) The peptides were quantified by an LC-MS system (1260 Infinity/6430 Triple Quad, Agilent Technologies) equipped with a binary pump (G1312B), a thermostated column compartment (G1316C), a thermostat (G1330B), and an autosampler (G1367E). […] The data acquisition and processing were performed by using MassHunter Workstation Software Quantitative Analysis (Version B.05.00; Agilent Technologies, Santa Clara, CA, USA). […]

NTAN1 T73A = biological target: T2, NTAN1 T73A (Homo sapiens, UniProt Q96AB6, T73A); assay: In vitro deamidation assay, NTAN1 T73A mutant; format: biochemical; conditions: substrate NRAAA, 100 μM, 37 °C, pH 7.0, LC-MS (Figure 3g); three independent experiments
T2 construct: The gene for full-length NTAN1 was cloned into pET-21a(+); made in house; host or cells: E. coli Rosetta 2(DE3)
T2 sequence (Q96AB6 1-310 T73A): T1 sequence (Q96AB6 1-310 C75A) with T73A, A75C
Excerpt: as §1, §2, §3

NTAN1 S254A = assay: In vitro deamidation assay, NTAN1 S254A mutant; format: biochemical, human; conditions: substrate NRAAA, 100 μM, 37 °C, pH 7.0, LC-MS (Figure 3b); three independent experiments
Excerpt: as §1, §2, §3

NTAN1 H92A = biological target: T3, NTAN1 H92A (Homo sapiens, UniProt Q96AB6, H92A); assay: In vitro deamidation assay, NTAN1 H92A mutant; format: biochemical; conditions: substrate NRAAA, 100 μM, 37 °C, pH 7.0, LC-MS; vs wild-type (Figure 1f); three independent experiments
T3 construct: The gene for full-length NTAN1 was cloned into pET-21a(+); made in house; host or cells: E. coli Rosetta 2(DE3)
T3 sequence (Q96AB6 1-310 H92A): T1 sequence (Q96AB6 1-310 C75A) with A75C, H92A
Excerpt: as §1, §2, §3

NTAN1 T74A = biological target: T4, NTAN1 T74A (Homo sapiens, UniProt Q96AB6, T74A); assay: In vitro deamidation assay, NTAN1 T74A mutant; format: biochemical; conditions: substrate NRAAA, 100 μM, 37 °C, pH 7.0, LC-MS (Figure 3f); three independent experiments
T4 construct: The gene for full-length NTAN1 was cloned into pET-21a(+); made in house; host or cells: E. coli Rosetta 2(DE3)
T4 sequence (Q96AB6 1-310 T74A): T1 sequence (Q96AB6 1-310 C75A) with T74A, A75C
Excerpt: as §1, §2, §3

Deamidation activity of NTAN1 C75A (NTAN1 C75A): completely abolished
Enzymatic activity of NTAN1 T73A (NTAN1 T73A): abolished
Deamidation activity of NTAN1 H92A (NTAN1 H92A): completely abolished
Enzymatic activity of NTAN1 T74A (NTAN1 T74A): abolished
Substance: NRAAA [synthesized peptide with Nt-Asn, 5 mer model substrate of NTAN1]
Lower deamidation rate of NTAN1 S254A than wild-type NTAN1 (NTAN1 S254A): threefold
